Each structure is given as a SMILES string.

The record followed here is patent publication US10953012B2, “Heterocyclic compounds for the inhibition of pask” (BioEnergenix LLC, priority 2011, dated 2021).

Assay [1] addresses hPASK (full length) (Homo sapiens (Human), UniProt Q96RG2). The experiment in a line: PAS Kinase Luminescence Assay (Kinase-Glo), full length. It counts as biochemical. Here is the method:
(§1) PAS Kinase Luminescence Assay
(§2) One assay for purified hPASK activity utilizes the Kinase-Glo Luminescent Kinase Assay (Promega), which quantifies the amount of ATP remaining in solution following kinase reaction. The assay is carried out in a 96-well plate format and is performed by adding a volume of Kinase-Glo Reagent (Promega, catalog #V3771) equal to the volume of solution in the well of a completed kinase reaction. Kinase-Glo reagent contains Luciferase and its substrate. After addition to a kinase reaction it allows to measure luminescence. The amount of ATP left in solution at the time of Kinase-Glo Plus addition is directly proportional to the luminescence that is measured in each well, and inversely correlated with kinase activity.
(§3) Purified hPASK from insect cells (0.02 μg) is added to a 50 μL reaction mix containing 40 mM HEPES (pH 7.0), 100 mM KCl, 5 mM MgCl2, 1 mM DTT and 1 μg of MBP protein. Inhibitory compounds are then added and the mixture is incubated for 10 min at 25° C. before adding 5 μL of ATP (at desired concentration). The reaction is allowed to proceed at 25° C. for 1 hour before adding 50 μL of Kinase-Glo reagent. The luminescence is measured as soon as 10 minutes after Kinase-Glo reagent is added.
(§4) Results are shown below in Table 1, where NT means not tested.
A general note: In Kinase-Glo more light means more ATP remaining.

The target of assay [2] is hPASK (kinase domain) (Homo sapiens (Human), UniProt Q96RG2). The experiment in a line: PAS Kinase Luminescence Assay (Kinase-Glo), kinase domain. It counts as biochemical. The protocol:
as §1, §2, §3, §4

Chain of hPASK (full length) (Q96RG2 whole entry): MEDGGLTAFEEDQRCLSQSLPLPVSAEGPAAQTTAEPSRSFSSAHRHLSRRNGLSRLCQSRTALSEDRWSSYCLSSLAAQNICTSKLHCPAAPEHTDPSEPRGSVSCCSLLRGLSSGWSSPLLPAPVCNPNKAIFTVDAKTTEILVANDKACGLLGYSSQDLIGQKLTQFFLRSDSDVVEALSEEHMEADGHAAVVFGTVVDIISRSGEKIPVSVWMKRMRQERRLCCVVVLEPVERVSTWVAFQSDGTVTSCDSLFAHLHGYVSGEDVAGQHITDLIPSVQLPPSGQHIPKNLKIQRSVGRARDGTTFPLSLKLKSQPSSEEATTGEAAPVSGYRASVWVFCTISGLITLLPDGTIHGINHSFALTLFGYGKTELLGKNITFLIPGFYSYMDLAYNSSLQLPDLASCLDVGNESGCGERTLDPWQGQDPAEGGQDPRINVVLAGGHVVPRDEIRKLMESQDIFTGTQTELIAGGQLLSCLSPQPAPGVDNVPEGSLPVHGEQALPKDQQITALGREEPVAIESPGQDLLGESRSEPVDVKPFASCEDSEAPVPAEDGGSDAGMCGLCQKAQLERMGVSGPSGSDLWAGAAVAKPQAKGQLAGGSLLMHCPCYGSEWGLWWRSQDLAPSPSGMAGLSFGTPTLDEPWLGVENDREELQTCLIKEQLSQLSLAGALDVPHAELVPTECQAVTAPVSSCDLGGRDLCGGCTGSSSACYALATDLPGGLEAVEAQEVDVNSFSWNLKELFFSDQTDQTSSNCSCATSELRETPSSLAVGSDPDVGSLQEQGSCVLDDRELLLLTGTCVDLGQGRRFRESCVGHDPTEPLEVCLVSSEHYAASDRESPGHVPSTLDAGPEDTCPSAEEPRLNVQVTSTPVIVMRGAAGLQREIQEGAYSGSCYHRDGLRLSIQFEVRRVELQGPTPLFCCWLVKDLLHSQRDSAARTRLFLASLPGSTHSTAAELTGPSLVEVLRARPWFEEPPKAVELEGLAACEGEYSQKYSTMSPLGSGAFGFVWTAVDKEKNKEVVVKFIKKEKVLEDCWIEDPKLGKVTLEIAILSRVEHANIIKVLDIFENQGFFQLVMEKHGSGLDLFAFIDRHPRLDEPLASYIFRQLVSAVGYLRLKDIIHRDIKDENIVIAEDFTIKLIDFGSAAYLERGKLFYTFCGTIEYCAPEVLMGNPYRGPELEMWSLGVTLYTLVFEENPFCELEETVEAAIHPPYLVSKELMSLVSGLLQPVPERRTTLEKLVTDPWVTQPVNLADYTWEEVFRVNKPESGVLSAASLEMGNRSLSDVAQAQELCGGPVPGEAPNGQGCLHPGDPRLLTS
Chain of hPASK (kinase domain) (Q96RG2 999-1251): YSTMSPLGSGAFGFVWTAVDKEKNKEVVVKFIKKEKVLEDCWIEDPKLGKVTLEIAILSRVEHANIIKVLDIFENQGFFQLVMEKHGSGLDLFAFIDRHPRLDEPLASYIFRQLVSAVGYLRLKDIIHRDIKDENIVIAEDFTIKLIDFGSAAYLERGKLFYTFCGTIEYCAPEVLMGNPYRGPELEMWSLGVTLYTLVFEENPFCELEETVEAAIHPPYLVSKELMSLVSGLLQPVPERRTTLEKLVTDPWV

Usually IC50 stands for the concentration needed to halve the response being measured. In the case of `COCc1cc(=O)n2nc(-c3ccc(Cl)cc3)cc2[nH]1` [Example 29, 2-(4-Chloro-phenyl)-5-methoxymethyl-4H-pyrazolo[1,5-a]pyrimidin-7-one], the 50% inhibitory concentration (IC50) in assay [1] and in assay [2] was at least 10 µM each time.
For `COc1ccc(-c2nn3c(=O)cc(C(C)C)[nH]c3c2-c2ccccc2)cc1` [Example 30, 5-Isopropyl-2-(4-methoxy-phenyl)-3-phenyl-4H-pyrazolo[1,5-a]pyrimidin-7-one], the IC50 in assay [1] and in assay [2] was at least 10 µM throughout.
`COc1ccc(Cc2nn3c(=O)cc(C)[nH]c3c2-c2ccccc2)cc1` [Example 31, 2-(4-Methoxy-benzyl)-5-methyl-3-phenyl-4H-pyrazolo[1,5-a]pyrimidin-7-one]: the IC50 in assay [1] and in assay [2] was at least 10 µM throughout.
With `CCc1c(C)[nH]c2c(-c3ccccc3)c(Cc3ccc(OC)cc3)nn2c1=O` [Example 32, 6-Ethyl-2-(4-methoxy-benzyl)-5-methyl-3-phenyl-4H-pyrazolo[1,5-a]pyrimidin-7-one], the IC50 in assay [1] and in assay [2] was at least 10 µM in each case.
Take `CCc1c(C)[nH]c2c(-c3ccc(Cl)cc3)c(C)nn2c1=O` [Example 33, 3-(4-Chloro-phenyl)-6-ethyl-2,5-dimethyl-4H-pyrazolo[1,5-a]pyrimidin-7-one]: the 50% inhibitory concentration (IC50) in assay [1] and in assay [2] was at least 10 µM throughout.
On to `O=c1cc(Cc2ccccc2)[nH]c2c(-c3ccccc3)c(-c3ccccc3)nn12` [Example 34, 5-Benzyl-2,3-diphenyl-4H-pyrazolo[1,5-a]pyrimidin-7-one], for which the IC50 in assay [1] and in assay [2] was at least 10 µM each time.
Take `O=c1c2c([nH]c3c(-c4ccccc4)c(-c4ccccc4)nn13)CCC2` [Example 35, 2,3-Diphenyl-6,7-dihydro-4H-cyclopenta[d]pyrazolo[1,5-a]pyrimidin-8(5H)-one]: the figures for the IC50 in assay [1] and in assay [2] were at least 10 µM and at most 10 µM, respectively.
As for `CCOC(=O)Cc1cc(=O)n2nc(-c3ccccc3)c(-c3ccccc3)c2[nH]1` [Example 36, (7-oxo-2,3-diphenyl-4,7-dihydro-pyrazolo[1,5-a]pyrimidin-5-yl)-acetic acid ethyl ester], the concentration for half-maximal inhibition (IC50) in assay [1] and in assay [2] was at least 10 µM throughout.
Consider `Cc1ccc(-c2cc(=O)n3nc(C)c(-c4ccccc4)c3[nH]2)cc1` [Example 37, 2-Methyl-3-phenyl-5-p-tolyl-4H-pyrazolo[1,5-a]pyrimidin-7-one], for which the half-maximal inhibitory concentration (IC50) in assay [1] and in assay [2] was at least 10 µM throughout.
As for `COc1ccc(-c2cc(=O)n3nc(C)c(-c4ccc(F)cc4)c3[nH]2)cc1` [Example 38, 3-(4-Fluoro-phenyl)-5-(4-methoxy-phenyl)-2-methyl-4H-pyrazolo[1,5-a]pyrimidin-7-one], the IC50 in assay [1] and in assay [2] was at most 10 µM in each case.
Take `Cc1cc(=O)n2nc(-c3cccc(Br)c3)cc2[nH]1` [Example 39, 2-(3-Bromo-phenyl)-5-methyl-4H-pyrazolo[1,5-a]pyrimidin-7-one]: the IC50 in assay [1] is at most 10 µM; in assay [2], at least 10 µM.
